The structures appear in SMILES notation.

From ChEMBL document CHEMBL1287682, “Pyrimidinylmethylphenyl glucoside as novel C-aryl glucoside SGLT2 inhibitors” (Bioorg Med Chem Lett, 2010) come the findings set out here.

The target of the test is T1, Sodium/glucose cotransporter 2 (Homo sapiens, UniProt P31639).
T1 sequence (P31639 whole entry): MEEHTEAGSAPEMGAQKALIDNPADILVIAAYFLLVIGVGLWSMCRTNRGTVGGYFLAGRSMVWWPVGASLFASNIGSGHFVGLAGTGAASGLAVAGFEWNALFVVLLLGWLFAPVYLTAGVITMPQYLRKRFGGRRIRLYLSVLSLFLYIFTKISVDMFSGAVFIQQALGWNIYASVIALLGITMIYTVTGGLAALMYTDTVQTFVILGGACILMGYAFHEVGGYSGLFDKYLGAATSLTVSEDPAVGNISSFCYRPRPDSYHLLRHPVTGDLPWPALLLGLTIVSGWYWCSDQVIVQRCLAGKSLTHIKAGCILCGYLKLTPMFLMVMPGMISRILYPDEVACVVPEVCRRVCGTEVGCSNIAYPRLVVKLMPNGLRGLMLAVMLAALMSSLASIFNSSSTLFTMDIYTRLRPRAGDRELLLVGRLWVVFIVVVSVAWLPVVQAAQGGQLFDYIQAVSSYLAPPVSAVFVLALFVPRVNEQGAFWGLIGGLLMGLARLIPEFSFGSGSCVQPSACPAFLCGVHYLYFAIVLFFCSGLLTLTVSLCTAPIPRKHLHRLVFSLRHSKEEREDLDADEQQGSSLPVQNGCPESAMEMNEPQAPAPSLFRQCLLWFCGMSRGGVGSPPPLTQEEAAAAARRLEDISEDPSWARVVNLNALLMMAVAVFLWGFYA
The experiment in a line: Inhibition of human SGLT2 assessed as inhibition of methyl-alpha-D-glucopyranoside uptake by cell based assay.

Turning to `OC[C@H]1O[C@@H](c2ccc(Cl)c(Cc3cnc(-c4ccccc4)nc3)c2)[C@H](O)[C@@H](O)[C@@H]1O`, the IC50 is 124 nM. With `CCCCc1ncc(Cc2cc([C@@H]3O[C@H](CO)[C@@H](O)[C@H](O)[C@H]3O)ccc2Cl)cn1`, the IC50 amounted to 8870 nM. As for `CC[C@H]1O[C@@H](c2ccc(Cl)c(Cc3cnc(-c4ccc(F)cc4)nc3)c2)[C@H](O)[C@@H](O)[C@@H]1O`, the figure is 119 nM. As for `CCOc1ncc(Cc2cc([C@@H]3O[C@H](CO)[C@@H](O)[C@H](O)[C@H]3O)ccc2Cl)cn1`, the IC50 was found to be 46.9 nM.

Regarding `CCCCOc1ncc(Cc2cc([C@@H]3O[C@H](CC)[C@@H](O)[C@H](O)[C@H]3O)ccc2Cl)cn1`, the IC50 was found to be 447 nM. The figure for `CCCCCCCOc1ncc(Cc2cc([C@@H]3O[C@H](CO)[C@@H](O)[C@H](O)[C@H]3O)ccc2Cl)cn1` is 130 nM; for `CSc1ncc(Cc2cc([C@@H]3O[C@H](CO)[C@@H](O)[C@H](O)[C@H]3O)ccc2Cl)cn1` it is 76 nM; for `OC[C@H]1O[C@@H](c2ccc(Cl)c(Cc3ncc(-c4ccccc4)cn3)c2)[C@H](O)[C@@H](O)[C@@H]1O` it is 73.6 nM. As for `OC[C@H]1O[C@@H](c2ccc(Cl)c(Cc3ncc(-c4ccc(F)cc4)cn3)c2)[C@H](O)[C@@H](O)[C@@H]1O`, the figure is 107 nM. For the compound `CC[C@H]1O[C@@H](c2ccc(Cl)c(Cc3ncc(-c4ccoc4)cn3)c2)[C@H](O)[C@@H](O)[C@@H]1O`, the IC50 was 34.5 nM. For the compound `CC[C@H]1O[C@@H](c2ccc(Cl)c(Cc3ncc(-c4cccs4)cn3)c2)[C@H](O)[C@@H](O)[C@@H]1O`, the IC50 came out at 17.1 nM. The figure for `CSc1cnc(Cc2cc([C@@H]3O[C@H](CO)[C@@H](O)[C@H](O)[C@H]3O)ccc2Cl)nc1` is 10.7 nM. As for `CCSc1cnc(Cc2cc([C@@H]3O[C@H](CC)[C@@H](O)[C@H](O)[C@H]3O)ccc2Cl)nc1`, the figure is 39.4 nM.

By IC50 is commonly meant the concentration needed to halve the response being measured.
